Data: patent publication US20230027985A1, “SUBSTITUTED HYDANTOINAMIDES AS ADAMTS7 ANTAGONISTS” (Bayer Aktiengesellschaft, priority 2019, published 2023)

Columns and labels:
[1] = target: T1, Purified recombinant ADAMTS-7 (rat prodomain/human catalytic domain, SEQ ID No. 01 or 02) (Homo sapiens, UniProt Q9UKP4); test: Assay for ADAMTS-7 enzymatic activity (FRET substrate cleavage); format: biochemical; conditions: FRET substrate SEQ ID No. 11, 120 min at 32° C.; read-out: ADAMTS7-IC50
T1 construct: rat ADAMTS-7 signal peptide + prodomain (rat 1-217, Q1EHB3) (N); 2xStrep tag (C); 6xHis tag (C); made in house; host or cells: Expi293 cells
T1 sequence (Q9UKP4 237-537): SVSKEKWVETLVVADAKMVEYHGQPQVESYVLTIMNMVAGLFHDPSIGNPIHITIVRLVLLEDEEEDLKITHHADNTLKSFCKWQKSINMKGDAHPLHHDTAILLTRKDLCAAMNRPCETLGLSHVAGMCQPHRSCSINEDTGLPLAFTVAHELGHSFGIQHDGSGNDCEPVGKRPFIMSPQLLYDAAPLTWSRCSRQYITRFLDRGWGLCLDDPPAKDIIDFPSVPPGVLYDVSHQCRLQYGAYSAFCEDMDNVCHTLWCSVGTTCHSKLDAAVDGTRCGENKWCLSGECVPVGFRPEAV
Procedure: Purified recombinant ADAMTS-7 (as of SEQ ID No. 01 or SEQ ID No. 02) was diluted in reaction buffer (20 mM HEPES pH 8.0, 150 mM NaCl, 5 mM CaCl2, 0.004% Brij, 10 μM ZnCl2) fora concentration of approximately 20 nM. 25 μl of the solution were transferred into each well of a 384-well white microtiter plate (Greiner Bio-One 781075) and 1 μl test compound solution (modulator/inhibitor dissolved in DMSO, at the corresponding concentration) or pure DMSO as a control were added per well. […] Amino acids […] are derived from Thrombospondin-1 sequence (275-289). An additional carboxyl glutamic acid was added after the QXL520 quencher to increase substrate solubility. The microtiter plate was incubated for 120 min at the temperature of 32° C. The increase of fluorescence intensity was measured in appropriate fluorescence plate reader (e.g. TECAN Ultra) using excitation wavelength of 485 nm and emission wavelength of 520 nm. IC50 values were calculated from percentage of inhibition of ADAMTS-7 activity as a function of test compound concentration.

ADAMTS4 = target: T2, ADAMTS4 (Homo sapiens, UniProt O75173); test: Selectivity assay for ADAMTS-7 modulators (FRET), ADAMTS4; format: biochemical; conditions: 50 nM enzyme (R&D 4307-AD), 1 μM Dabcyl/Edans FRET substrate, 120 min at 32° C.
T2 construct: purchased R&D 4307-AD
T2 sequence (O75173 213-685 limits assumed): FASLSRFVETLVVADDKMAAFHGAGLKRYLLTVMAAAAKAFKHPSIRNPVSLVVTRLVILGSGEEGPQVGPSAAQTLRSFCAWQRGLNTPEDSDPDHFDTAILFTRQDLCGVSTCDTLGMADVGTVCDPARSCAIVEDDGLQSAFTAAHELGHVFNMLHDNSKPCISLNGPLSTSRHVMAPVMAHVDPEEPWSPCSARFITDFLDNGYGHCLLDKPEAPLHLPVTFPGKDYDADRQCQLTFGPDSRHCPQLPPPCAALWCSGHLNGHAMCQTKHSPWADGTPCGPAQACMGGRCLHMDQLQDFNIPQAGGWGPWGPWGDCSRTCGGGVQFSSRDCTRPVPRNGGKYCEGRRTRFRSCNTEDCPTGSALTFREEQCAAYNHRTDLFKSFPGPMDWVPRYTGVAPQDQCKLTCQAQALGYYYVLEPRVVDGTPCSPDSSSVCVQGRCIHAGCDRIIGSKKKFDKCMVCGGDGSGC
Procedure: The respective enzyme (see table 2 below) was diluted in reaction buffer (50 mM Tris, 2.5 μM ZnCl2, 0.05% BSA, 0.001% Brij, pH 7.5 for ADAM17; 50 mM Tris 7.5, 150 mM NaCl, 10 mM CaCl2, 0.05% Brij for all other enzymes) to the respective concentration and 25 μl were transferred into each well of a 384-well white microtiter plate (Greiner Bio One 781075). 1 μl test compound solution (dissolved in DMSO, at the corresponding concentration) or pure DMSO as a control was added per well. The enzymatic reaction was initiated by addition of 25 μl of the respective concentration of the respective FRET substrate (see table 2 below) in reaction buffer. The microtiter plate was incubated for 120 min at the temperature of 32° C. The increase of fluorescence intensity was measured in appropriate fluorescence plate reader (e.g. TECAN Ultra) using the respective wavelengths for excitation and emission. IC50 values were calculated from percentage of inhibition of enzyme activity as a function of test compound concentration.

IC50 [1] [nM] | IC50 (ADAMTS4) [nM] | Structure (SMILES)
10 | 2400 | Cn1nccc1C1(CNC(=O)c2cnn(-c3ccc(F)cc3)n2)NC(=O)NC1=O (racemic) [Example 127, rac-2-(4-fluorophenyl)-N-{[4-(1-methyl-1H-pyrazol-5-yl)-2,5-dioxoimidazolidin-4-yl]methyl}-2H-1,2,3-triazole-4-carboxamide]
29 | 2400 | O=C1NC(=O)C(CNC(=O)c2cnn(-c3ccc(F)cc3)n2)(c2ccnn2C(F)F)N1 (racemic) [Example 128, rac-N-({4-[1-(difluoromethyl)-1H-pyrazol-5-yl]-2,5-dioxoimidazolidin-4-yl}methyl)-2-(4-fluorophenyl)-2H-1,2,3-triazole-4-carboxamide]
14 | 2800 | CCn1nccc1C1(CNC(=O)c2cnn(-c3ccc(F)cc3)n2)NC(=O)NC1=O (racemic) [Example 130, rac-N-{[4-(1-ethyl-1H-pyrazol-5-yl)-2,5-dioxoimidazolidin-4-yl]methyl}-2-(4-fluorophenyl)-2H-1,2,3-triazole-4-carboxamide]
37 | 2500 | Cc1ncsc1C1(CNC(=O)c2cnn(-c3ccc(F)cc3)n2)NC(=O)NC1=O (racemic) [Example 131, rac-2-(4-fluorophenyl)-N-{[4-(4-methyl-1,3-thiazol-5-yl)-2,5-dioxoimidazolidin-4-yl]methyl}-2H-1,2,3-triazole-4-carboxamide]
50 | 3200 | O=C1NC(=O)C(CNC(=O)c2cnn(-c3ccc(F)cc3)n2)(c2ccnn2CC(F)(F)F)N1 (racemic) [Example 133, rac-N-({2,5-dioxo-4-[1-(2,2,2-trifluoroethyl)-1H-pyrazol-5-yl]imidazolidin-4-yl}methyl)-2-(4-fluorophenyl)-2H-1,2,3-triazole-4-carboxamide]
48 | 6600 | O=C1NC(=O)C(CNC(=O)c2cnn(-c3ccc(F)cc3)n2)(c2ncsc2C(F)(F)F)N1 (racemic) [Example 135, rac-N-({2,5-dioxo-4-[5-(trifluoromethyl)-1,3-thiazol-4-yl]imidazolidin-4-yl}methyl)-2-(4-fluorophenyl)-2H-1,2,3-triazole-4-carboxamide]
69 | > 50000 | O=C1NC(=O)C(CNC(=O)c2cnn(-c3ccc(F)cc3)n2)(c2ccccc2)N1 (racemic) [Example 139, rac-N-[(2,5-dioxo-4-phenylimidazolidin-4-yl)methyl]-2-(4-fluorophenyl)-2H-1,2,3-triazole-4-carboxamide]
4 | 360 | Cn1ccnc1C1(CNC(=O)c2cnn(-c3ccccc3)n2)NC(=O)NC1=O (racemic) [Example 140, rac-N-{[4-(1-methyl-1H-imidazol-2-yl)-2,5-dioxoimidazolidin-4-yl]methyl}-2-phenyl-2H-1,2,3-triazole-4-carboxamide]
4 | 320 | Cn1ccnc1C1(CNC(=O)c2cnn(-c3ccc(F)cc3)n2)NC(=O)NC1=O (racemic) [Example 141, rac-2-(4-fluorophenyl)-N-{[4-(1-methyl-1H-imidazol-2-yl)-2,5-dioxoimidazolidin-4-yl]methyl}-2H-1,2,3-triazole-4-carboxamide]
5 | 200 | Cn1ccnc1C1(CNC(=O)c2cnn(-c3cc(F)c(F)c(F)c3)n2)NC(=O)NC1=O (racemic) [Example 143, rac-N-{[4-(1-methyl-1H-imidazol-2-yl)-2,5-dioxoimidazolidin-4-yl]methyl}-2-(3,4,5-trifluorophenyl)-2H-1,2,3-triazole-4-carboxamide]
38 | 2000 | CC1(C)CC1C1(CNC(=O)c2cnn(-c3ccccc3)n2)NC(=O)NC1=O (racemic) [Example 150, ent-N-({4-[rac-2,2-dimethylcyclopropyl]-2,5-dioxoimidazolidin-4-yl}methyl)-2-phenyl-2H-1,2,3-triazole-4-carboxamide]
560 | 5000 | CC1(CNC(=O)c2cnn(-c3ccc(F)cc3)n2)NC(=O)NC1=O (racemic) [Example 152, rac-2-(4-fluorophenyl)-N-[(4-methyl-2,5-dioxoimidazolidin-4-yl)methyl]-2H-1,2,3-triazole-4-carboxamide]
190 | 7900 | O=C1NC(=O)C(CNC(=O)c2cnn(-c3ccc(F)cc3)n2)(C2(F)CC2)N1 (racemic) [Example 154, rac-N-{[4-(1-fluorocyclopropyl)-2,5-dioxoimidazolidin-4-yl]methyl}-2-(4-fluorophenyl)-2H-1,2,3-triazole-4-carboxamide]
220 | > 50000 | O=C1NC(=O)C(CNC(=O)c2cnn(-c3ccc(F)cc3)n2)(C2CC(F)(F)C2)N1 (racemic) [Example 155, rac-N-{[4-(3,3-difluorocyclobutyl)-2,5-dioxoimidazolidin-4-yl]methyl}-2-(4-fluorophenyl)-2H-1,2,3-triazole-4-carboxamide]
59 | 15000 | O=C1NC(=O)C(CNC(=O)c2cnn(-c3ccc(F)cc3)n2)(c2ncccc2C(F)(F)F)N1 (racemic) [Example 156, rac-N-({2,5-dioxo-4-[3-(trifluoromethyl)pyridin-2-yl]imidazolidin-4-yl}methyl)-2-(4-fluorophenyl)-2H-1,2,3-triazole-4-carboxamide]
100 | 2800 | Cc1nc(C2(CNC(=O)c3cnn(-c4ccc(F)cc4)n3)NC(=O)NC2=O)c(C)s1 (racemic) [Example 158, rac-N-{[4-(2,5-dimethyl-1,3-thiazol-4-yl)-2,5-dioxoimidazolidin-4-yl]methyl}-2-(4-fluorophenyl)-2H-1,2,3-triazole-4-carboxamide]
74 | 3700 | O=C1NC(=O)C(CNC(=O)c2cnn(-c3ccc(F)cc3)n2)(C2(Cl)CC2)N1 (racemic) [Example 159, rac-N-{[4-(1-chlorocyclopropyl)-2,5-dioxoimidazolidin-4-yl]methyl}-2-(4-fluorophenyl)-2H-1,2,3-triazole-4-carboxamide]
200 | 13000 | CCC1(CNC(=O)c2cnn(-c3ccc(F)cc3)n2)NC(=O)NC1=O (racemic) [Example 162, rac-N-[(4-ethyl-2,5-dioxoimidazolidin-4-yl)methyl]-2-(4-fluorophenyl)-2H-1,2,3-triazole-4-carboxamide]
10 | 1900 | O=C1NC(=O)C(CNC(=O)c2cnn(-c3ccc(F)cc3)n2)(c2ccccn2)N1 (single isomer, unassigned) [Example 97, ent-N-{[2,5-dioxo-4-(pyridin-2-yl)imidazolidin-4-yl]methyl}-2-(4-fluorophenyl)-2H-1,2,3-triazole-4-carboxamide]
10 | 2200 | CCC(C)C1(CNC(=O)c2cnn(-c3ccc(F)cc3)n2)NC(=O)NC1=O (single isomer, unassigned) [Example 104, ent-N-[(4-sec-butyl-2,5-dioxoimidazolidin-4-yl)methyl]-2-(4-fluorophenyl)-2H-1,2,3-triazole-4-carboxamide]
